Results reported in patent US10799503B2, “Methods for the treatment of cancer” (IGNYTA, INC., priority 2016, dated 2020).

Experiments:
[1] = Phase I and Phase Ib clinical studies (Example 4): treatment-related adverse events and disposition; type: in vivo, human
Experimental: Phase I and Phase Ib clinical studies were performed in which 92 total subjects were enrolled, 91 of which were treated, and of which 35 in the Phase Ib portion were determined to be molecularly evaluable and were treated.
Table 4 provides a summary of the most common, treatment-related adverse events (AEs) in all patients that were treated (n=91), expressed as a percentage of the 91 patients.

[2] = Phase I and Phase Ib clinical studies (Example 5, data cut-off Aug. 1, 2017): treatment-related adverse events and disposition; type: in vivo, human
Excerpt: The most common (>10%) treatment related AEs […].

COc1cc2ncnc(Oc3cccc(NC(=O)Nc4cc(C(C)(C)C(F)(F)F)on4)c3)c2cc1OC [N-[3-[(6,7-dimethoxy-4-quinazolinyl)oxy]phenyl]-N′-[5-(2,2,2-trifluoro-1,1-dimethylethyl)-3-isoxazolyl]-urea]
Discontinued, primary reason Death, number of subjects ([1]; 92 enrolled in Phase 1/1b): 4 n | Discontinued, primary reason Death, percent of subjects ([1]; 92 enrolled in Phase 1/1b): (4) % | ALT increase Any Grade, number of patients ([1]; human, in vivo): 6 | ALT increase Any Grade, percentage of patients ([1]; human, in vivo): (7) % | ALT increase Grade ≤ 2, number of patients ([1]; human, in vivo): 1 | ALT increase Grade ≤ 2, percentage of patients ([1]; human, in vivo): (1) % | ALT increase Grade ≥ 3, number of patients ([1]; human, in vivo): 5 | ALT increase Grade ≥ 3, percentage of patients ([1]; human, in vivo): (6) % | AST increase Any Grade, number of patients ([1]; human, in vivo): 6 | AST increase Any Grade, percentage of patients ([1]; human, in vivo): (7) % | AST increase Grade ≤ 2, percentage of patients ([1]; human, in vivo): (3) % | AST increase Grade ≥ 3, number of patients ([1]; human, in vivo): 3 | AST increase Grade ≥ 3, percentage of patients ([1]; human, in vivo): (3) % | Anemia Any Grade, number of patients ([1]; human, in vivo): 6 | Anemia Any Grade, percentage of patients ([1]; human, in vivo): (7) % | Anemia Grade ≤ 2, number of patients ([1]; human, in vivo): 5 | Anemia Grade ≤ 2, percentage of patients ([1]; human, in vivo): (6) % | Anemia Grade ≥ 3, number of patients ([1]; human, in vivo): 1 | Anemia Grade ≥ 3, percentage of patients ([1]; human, in vivo): (1) % | Decreased Appetite Any Grade, number of patients ([1]; human, in vivo): 9 | Decreased Appetite Any Grade, percentage of patients ([1]; human, in vivo): (10) % | Decreased Appetite Grade ≤ 2, number of patients ([1]; human, in vivo): 9 | Decreased Appetite Grade ≤ 2, percentage of patients ([1]; human, in vivo): (10) % | Decreased Appetite Grade ≥ 3, number of patients ([1]; human, in vivo): 0 | Diarrhea Any Grade, number of patients ([1]; human, in vivo): 18 | Diarrhea Any Grade, percentage of patients ([1]; human, in vivo): (20) % | Diarrhea Grade ≤ 2, number of patients ([1]; human, in vivo): 14 | Diarrhea Grade ≤ 2, percentage of patients ([1]; human, in vivo): (15) % | Diarrhea Grade ≥ 3, number of patients ([1]; human, in vivo): 4 | Diarrhea Grade ≥ 3, percentage of patients ([1]; human, in vivo): (4) % | Discontinued, primary reason Adverse Event, number of subjects ([1]; human, in vivo): 11 n | Discontinued, primary reason Adverse Event, percent of subjects ([1]; human, in vivo): (12) % | Dysgeusia Any Grade, number of patients ([1]; human, in vivo): 5 | Dysgeusia Any Grade, percentage of patients ([1]; human, in vivo): (6) % | Dysgeusia Grade ≤ 2, number of patients ([1]; human, in vivo): 5 | Dysgeusia Grade ≤ 2, percentage of patients ([1]; human, in vivo): (6) % | Dysgeusia Grade ≥ 3, number of patients ([1]; human, in vivo): 0 | Erythema Any Grade, number of patients ([1]; human, in vivo): 7 | Erythema Any Grade, percentage of patients ([1]; human, in vivo): (8) % | Erythema Grade ≤ 2, number of patients ([1]; human, in vivo): 7 | Erythema Grade ≤ 2, percentage of patients ([1]; human, in vivo): (8) % | Erythema Grade ≥ 3, number of patients ([1]; human, in vivo): 0 | Fatigue Any Grade, number of patients ([1]; human, in vivo): 20 | Fatigue Any Grade, percentage of patients ([1]; human, in vivo): (22) % | Fatigue Grade ≤ 2, number of patients ([1]; human, in vivo): 16 | Fatigue Grade ≤ 2, percentage of patients ([1]; human, in vivo): (18) % | Fatigue Grade ≥ 3, number of patients ([1]; human, in vivo): 4 | Fatigue Grade ≥ 3, percentage of patients ([1]; human, in vivo): (4) % | Hypokalemia Any Grade, number of patients ([1]; human, in vivo): 6 | Hypokalemia Any Grade, percentage of patients ([1]; human, in vivo): (7) % | Hypokalemia Grade ≤ 2, number of patients ([1]; human, in vivo): 6 | Hypokalemia Grade ≤ 2, percentage of patients ([1]; human, in vivo): (7) % | Hypokalemia Grade ≥ 3, number of patients ([1]; human, in vivo): 0 | Hypophosphatemia Any Grade, number of patients ([1]; human, in vivo): 13 | Hypophosphatemia Any Grade, percentage of patients ([1]; human, in vivo): (14) % | Hypophosphatemia Grade ≤ 2, number of patients ([1]; human, in vivo): 7 | Hypophosphatemia Grade ≤ 2, percentage of patients ([1]; human, in vivo): (8) % | Hypophosphatemia Grade ≥ 3, number of patients ([1]; human, in vivo): 6 | Hypophosphatemia Grade ≥ 3, percentage of patients ([1]; human, in vivo): (7) % | Muscle Spasms Any Grade, number of patients ([1]; human, in vivo): 12 | Muscle Spasms Any Grade, percentage of patients ([1]; human, in vivo): (13) % | Muscle Spasms Grade ≤ 2, number of patients ([1]; human, in vivo): 12 | Muscle Spasms Grade ≤ 2, percentage of patients ([1]; human, in vivo): (13) % | Muscle Spasms Grade ≥ 3, number of patients ([1]; human, in vivo): 0 | Nausea Any Grade, number of patients ([1]; human, in vivo): 16 | Nausea Any Grade, percentage of patients ([1]; human, in vivo): (18) % | Nausea Grade ≤ 2, number of patients ([1]; human, in vivo): 16 | Nausea Grade ≤ 2, percentage of patients ([1]; human, in vivo): (18) % | Nausea Grade ≥ 3, number of patients ([1]; human, in vivo): 0 | Rash* Any Grade, number of patients ([1]; human, in vivo): 28 | Rash* Any Grade, percentage of patients ([1]; human, in vivo): (31) % | Rash* Grade ≤ 2, number of patients ([1]; human, in vivo): 20 | Rash* Grade ≤ 2, percentage of patients ([1]; human, in vivo): (22) % | Rash* Grade ≥ 3, number of patients ([1]; human, in vivo): 8 | Rash* Grade ≥ 3, percentage of patients ([1]; human, in vivo): (9) % | Vomiting Any Grade, number of patients ([1]; human, in vivo): 13 | Vomiting Any Grade, percentage of patients ([1]; human, in vivo): (14) % | Vomiting Grade ≤ 2, number of patients ([1]; human, in vivo): 13 | Vomiting Grade ≤ 2, percentage of patients ([1]; human, in vivo): (14) % | Vomiting Grade ≥ 3, number of patients ([1]; human, in vivo): 0 | Number of patients that discontinued due to death ([2]; Phase 1 (N = 55)): 3 n | Number of patients that discontinued due to death ([2]; Phase 1b Other (N = 50)): 1 n | Number of patients that discontinued due to death ([2]; Phase 1b RET+ (N = 47)): 0 n | Number of patients that discontinued due to death ([2]; Total Subjects (N = 152)): 4 n | Blood Bilirubin Increased ≤G2 ([2]; human, in vivo): 6 (4) | Blood Bilirubin Increased ≥G3 ([2]; human, in vivo): 1 (1) | Decreased Appetite ≤G2 ([2]; human, in vivo): 17 (11) | Decreased Appetite ≥G3 ([2]; human, in vivo): 0 (0) | Diarrhea ≤G2 ([2]; human, in vivo): 28 (18) | Diarrhea ≥G3 ([2]; human, in vivo): 6 (4) | Elevated Alanine Aminotransferase ≤G2 ([2]; human, in vivo): 4 (3) | Elevated Alanine Aminotransferase ≥G3 ([2]; human, in vivo): 11 (7) | Elevated Aspartate Aminotransferase ≤G2 ([2]; human, in vivo): 9 (6) | Elevated Aspartate Aminotransferase ≥G3 ([2]; human, in vivo): 6 (4) | Fatigue ≤G2 ([2]; human, in vivo): 27 (18) | Fatigue ≥G3 ([2]; human, in vivo): 5 (3) | Hypophosphatemia ≤G2 ([2]; human, in vivo): 13 (9) | Hypophosphatemia ≥G3 ([2]; human, in vivo): 11 (7) | Muscle Spasms ≤G2 ([2]; human, in vivo): 19 (13) | Muscle Spasms ≥G3 ([2]; human, in vivo): 0 (0) | Nausea ≤G2 ([2]; human, in vivo): 21 (14) | Nausea ≥G3 ([2]; human, in vivo): 0 (0) | Rash* ≤G2 ([2]; human, in vivo): 37 (24) | Rash* ≥G3 ([2]; human, in vivo): 15 (10) | Vomiting ≤G2 ([2]; human, in vivo): 15 (10) | Vomiting ≥G3 ([2]; human, in vivo): 0 (0) | number of treatment-related serious adverse events (SAEs) ([2]; human, in vivo): 19 | patients who experienced treatment-related serious adverse events (SAEs) ([2]; human, in vivo): 9% | resolution of treatment-related serious adverse events ([2]; human, in vivo): all except 1 resolved by dose modification or discontinuation | safety profile ([2]; human, in vivo): manageable safety profile | severity and reversibility of the majority of treatment-related adverse events ([2]; human, in vivo): <Grade 2 and were reversible with dose modifications | toxicities commonly associated with VEGFR inhibition (hypertension, hypothyroidism, proteinuria, neurotoxicity) ([2]; human, in vivo): rarely observed
